Test results taken from US20230192686A1, “1H-PYRROLO[2,3-B]PYRIDINES AND PREPARATION AND USES THEREOF” (BioSplice Therapeutics, Inc., priority 2021, published 2023).

Tests used:
[1] = target: recombinant DYRK1A kinase (Homo sapiens, UniProt Q13627); test: DYRK1A kinase assay (Ser/Thr 18 peptide Z-lyte FRET); type: biochemical; details: DYRK1A kinase activity; 15 μM ATP, 4 μM Ser/Thr peptide 18, one hour at room temperature
Summary of the method: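 Recombinant DYRK1A at 0.25 μg/mL was incubated 1 h at room temperature with 15 μM ATP, 4 μM Ser/Thr 18 peptide and compound, in duplicate, 11-point series from 10 μM. Phosphorylation was read by Z-lyte FRET after 1 h protease development, as the coumarin/fluorescein emission ratio converted to % phosphorylation. IC50 by non-linear regression.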

[2] = test system: Tau phosphorylation at Thr212 (pThr212); test: Tau phosphorylation assay, phosphoTau (Thr212) AlphaLISA in HEK293T cells transfected with DYRK1A and MAPT; type: cell-based; details: HEK-293T; HEK293T cells transfected with human DYRK1A and MAPT; compound treatment 18-24 hours; read-out: pTau (Thr212) EC50
Description: Representative compounds were screened using the assay procedure for tau phosphorylation activity described below.
HEK293T cells (ATCC, CRL3216) cultured in DMEM (Thermo Fisher Scientific, 10566024) supplemented with 10% FBS (Corning, 35-011-CV) and Penicillin/Streptomycin (Thermo Fisher Scientific, 15140163) were seeded in a 75 cm^2 flask at 8.1×10^6 cells/flask. The HEK293T cells were then transiently transfected with 5 μg DYRK1A (NM_001396) human untagged clone (OriGene, SC314641) and 2.5 μg MAPT (441 a.a. Tau gene) (NM_005910) human untagged clone (OriGene, TP313312) using Lipofectamine 3000 (Thermo Fisher Scientific, L30000015) and incubated for 20-30 hours in a humidified incubator at 37° C. and 5% CO2. Post-incubation, HEK293T cells transfected with the DYRK1A and MAPT expression vectors were harvested and seeded in BioCoat poly-D lysine coated 96-well plates (Corning, 354461) at 3×10^4 cells/well.
The above synthesized compounds were screened using the cell assay procedure to assess decreased Tau phosphorylation at Thr212 (pThr212) described below.
Each compound was dissolved in DMSO (Sigma-Aldrich, D8418-100 mL) as a 10 mM stock. 10 mM stocks were serially diluted 1:3, 10-point dose-response curve and added to the cells with a final concentration ranging from 20 μM to 1.1 nM. Cell were treated with compounds in duplicate and incubated for 18-24 hours in a humidified incubator at 37° C. and 5% CO2.
Following the overnight compound treatment, cells were lysed with 1× Alpha Surefire Ultra Lysis Buffer (Perkin Elmer, ALSU-LB-100ML) complemented with 1× Halt Phosphatase Inhibitor Cocktail (Thermo Fisher Scientific, 78427) and 1× Halt Protease Inhibitor Cocktail (Thermo Fisher Scientific, 78438). Lysates were spun down at 12,000 g for 10 min to remove any cellular debris and 5 μL of lysates were dispensed into a 384-well Opti-Plate (Perkin Elmer, 6007290) for the measurement of Tau phosphorylation in the phosphoTau (Thr212) AlphaLISA assay. Donor antibody, biotinylated HT7Tau (Thermo Fisher Scientific, MN1000B), and acceptor antibody, pThr212Tau (Thermo Fisher Scientific, 44740G) were both added to the cell lysates at a final concentration of 3 nM and incubated for 1 hour at room temperature. Following incubation of the lysates with the donor and acceptor antibodies, anti-rabbit IgG(Fc specific) AlphaLISA acceptor beads (Perkin Elmer, AL104C) were added at a 10 ug/mL final concentration and incubated for 1 hour at room temperature protected from light. Lastly, AlphaScreen streptavidin donor beads (PerkinElmer, 6760002) were added at 40 ug/mL final concentration and incubated for 1 hour at room temperature protected from light. Plates were read at Ex=[…], and Em=615 nm on the EnVision Multilabel Plate Reader (Perkin Elmer) phospho-Tau (Thr212) AlphaLISA signal was used to plot, draw the curve fitting, and determine each compound's EC50 in Prism (GraphPad).

| EC50 [1] [nM] | EC50 [2] [nM] | Compound |
| --- | --- | --- |
| 1 | 16 | Cc1nc2ncc(-c3c[nH]c4ncccc34)cc2n1C(C)C [Compound 25, 1-Isopropyl-2-methyl-6-(1H-pyrrolo[2,3-b]pyridin-3-yl)-1H-imidazo[4,5-b]pyridine] |
| 1 | 6 | Cn1cc(-c2cnn3ccc(-c4c[nH]c5ncccc45)cc23)cn1 [Compound 37, 3-(3-(1-Methyl-1H-pyrazol-4-yl)pyrazolo[1,5-a]pyridin-5-yl)-1H-pyrrolo[2,3-b]pyridine] |
| 5 | 31 | CN1CCC(Nc2cnc3ccc(-c4c[nH]c5ncccc45)cc3n2)CC1 [Compound 92, N-(1-Methylpiperidin-4-yl)-7-(1H-pyrrolo[2,3-b]pyridin-3-yl) quinoxalin-2-amine] |
| 8 | 396 | O=C(c1cnn2ccc(-c3c[nH]c4ncccc34)cc12)N1CCC(N2CCOCC2)CC1 [Compound 107, (5-(1H-Pyrrolo[2,3-b]pyridin-3-yl)pyrazolo[1,5-a]pyridin-3-yl)(4-morpholinopiperidin-1-yl)methanone] |
| 12 | 258 | CN1CCN(C(=O)c2cnn3ccc(-c4c[nH]c5ncc(Cl)cc45)cc23)CC1 [Compound 215, (5-(5-Chloro-1H-pyrrolo[2,3-b]pyridin-3-yl)pyrazolo[1,5-a]pyridin-3-yl)(4-methylpiperazin-1-yl)methanone] |
|  | 2 | c1cncc(-c2cnc3[nH]cc(-c4ccc5ncccc5c4)c3c2)c1 [Compound 1194, 6-(5-(Pyridin-3-yl)-1H-pyrrolo[2,3-b]pyridin-3-yl)quinoline] |
| 2 | 39 | Cc1ccc2c(-c3ccc4ncccc4c3)c[nH]c2n1 [Compound 1488, 6-(6-Methyl-1H-pyrrolo[2,3-b]pyridin-3-yl)quinoline] |
| 4 |  | CN1CCN(c2cccc(Nc3ccc4c(-c5ccn6ncc(-c7cnn(C)c7)c6c5)c[nH]c4n3)c2)CC1 [Compound 1930, 3-(3-(1-Methyl-1H-pyrazol-4-yl)pyrazolo[1,5-a]pyridin-5-yl)-N-(3-(4-methylpiperazin-1-yl)phenyl)-1H-pyrrolo[2,3-b]pyridin-6-amine] |
| 45 |  | Cc1nc2c(F)cc(-c3c[nH]c4nc(-c5cnn(C)c5)ccc34)cc2n1C(C)C [Compound 1963, 4-Fluoro-1-isopropyl-2-methyl-6-(6-(1-methyl-1H-pyrazol-4-yl)-1H-pyrrolo[2,3-b]pyridin-3-yl)-1H-benzo[d]imidazole] |
| 10 |  | CN1CCC(NC(=O)c2cnn3ccc(-c4c[nH]c5nc(-c6cnn(C)c6)ccc45)cc23)CC1 [Compound 1976, 5-(6-(1-Methyl-1H-pyrazol-4-yl)-1H-pyrrolo[2,3-b]pyridin-3-yl)-N-(1-methylpiperidin-4-yl)pyrazolo[1,5-a]pyridine-3-carboxamide] |
| 32 |  | COc1cnc2[nH]cc(-c3ccn4ncc(C(=O)N5CCN(C)CC5)c4c3)c2c1 [Compound 2047, (5-(5-Methoxy-1H-pyrrolo[2,3-b]pyridin-3-yl)pyrazolo[1,5-a]pyridin-3-yl)(4-methylpiperazin-1-yl)methanone] |
| 45 |  | CN1C2CCC1CN(C(=O)c1cnc3[nH]cc(-c4ccn5nccc5c4)c3c1)C2 [Compound 2049, (8-Methyl-3,8-diazabicyclo[3.2.1]octan-3-yl)(3-(pyrazolo[1,5-a]pyridin-5-yl)-1H-pyrrolo[2,3-b]pyridin-5-yl)methanone] |
| 159 |  | CN1CCN(C(=O)c2cnn3ccc(-c4c[nH]c5ncc(C(F)(F)F)cc45)cc23)CC1 [Compound 2050, (4-Methylpiperazin-1-yl)(5-(5-(trifluoromethyl)-1H-pyrrolo[2,3-b]pyridin-3-yl)pyrazolo[1,5-a]pyridin-3-yl)methanone] |

The next lines start with the compound.

| Compound | EC50 [1] [nM] | EC50 [2] [nM] |
| --- | --- | --- |
| CN1CCN(c2ccc(NC(=O)c3cnc4[nH]cc(-c5ccc6nccnc6c5)c4c3)cn2)CC1 [Compound 817, N-(6-(4-Methylpiperazin-1-yl)pyridin-3-yl)-3-(quinoxalin-6-yl)-1H-pyrrolo[2,3-b]pyridine-5-carboxamide] | 8 | 210 |
| CN1CCN(c2cccc(Nc3ccc4c(-c5ccc6c(c5)CCCO6)c[nH]c4n3)c2)CC1 [Compound 1945, 3-(Chroman-6-yl)-N-(3-(4-methylpiperazin-1-yl)phenyl)-1H-pyrrolo [2,3-]pyridin-6-amine] | 125 |  |
| CN1CCN(c2cccc(Nc3ccc4c(-c5ccc6ncccc6c5)c[nH]c4n3)c2)CC1 [Compound 1950, N-(3-(4-Methylpiperazin-1-yl)phenyl)-3-(quinolin-6-yl)-1H-pyrrolo [2,3-b]pyridin-6-amine] | 38 |  |
| CN1C2CCC1CN(C(=O)c1cnc3[nH]cc(-c4cc5ccncc5s4)c3c1)C2 [Compound 2041, (8-Methyl-3,8-diazabicyclo[3.2.1]octan-3-yl)(3-(thieno[2,3-c]pyridin-2-yl)-1H-pyrrolo[2,3-b]pyridin-5-yl)methanone] | 115 |  |
| c1cn2cc(-c3c[nH]c4nc(C5CCC5)ccc34)ncc2n1 [Compound 2042, 6-(6-Cyclobutyl-1H-pyrrolo[2,3-b]pyridin-3-yl)imidazo[1,2-a]pyrazine] | 345 |  |
| Cc1nc2c(F)cc(-c3c[nH]c4ncc(C(=O)O)cc34)cc2n1C(C)C [Compound 2043, 3-(4-Fluoro-1-isopropyl-2-methyl-1H-benzo[d]imidazol-6-yl)-1H-pyrrolo[2,3-b]pyridine-5-carboxylic acid] | 36 |  |
| Cc1nc2c(F)cc(-c3c[nH]c4ncc(C(=O)N5CC6CCC(C5)N6C)cc34)cc2n1C(C)C [Compound 2044, (3-(4-Fluoro-1-isopropyl-2-methyl-1H-benzo[d]imidazol-6-yl)-1H-pyrrolo[2,3-b]pyridin-5-yl)(8-methyl-3,8-diazabicyclo[3.2.1]octan-3-yl)methanone] | 3 |  |
| Cc1nc2c(F)cc(-c3c[nH]c4nc(C(C)C)ccc34)cc2n1C(C)C [Compound 2045, 4-Fluoro-1-isopropyl-6-(6-isopropyl-1H-pyrrolo[2,3-b]pyridin-3-yl)-2-methyl-1H-benzo[d]imidazole] | 36 |  |
| CN1CCC(NC(=O)c2ccc3c(-c4ccc5ncnn5c4)c[nH]c3n2)CC1 [Compound 2048, 3-([1,2,4]Triazolo[1,5-a]pyridin-6-yl)-N-(1-methylpiperidin-4-yl)-1H-pyrrolo[2,3-b]pyridine-6-carboxamide] | 2540 |  |
| CN1CCN(c2ccc(CNc3ccnc4[nH]cc(-c5ccc6ncccc6c5)c34)cn2)CC1 [Compound 2051, N-((6-(4-Methylpiperazin-1-yl)pyridin-3-yl)methyl)-3-(quinolin-6-yl)-1H-pyrrolo[2,3-b]pyridin-4-amine] | 37 |  |
| c1cnc2ccc(-c3c[nH]c4nccc(NCc5ccc(-n6ccnc6)nc5)c34)cc2c1 [Compound 2052, N-((6-(1H-Imidazol-1-yl)pyridin-3-yl)methyl)-3-(quinolin-6-yl)-1H-pyrrolo[2,3-b]pyridin-4-amine] | 34 |  |
| c1cnc2ccc(-c3c[nH]c4nc(OCC5CC5)ccc34)cc2c1 [Compound 2053, 6-(6-(Cyclopropylmethoxy)-1H-pyrrolo[2,3-b]pyridin-3-yl)quinoline] | 76 |  |
| c1cnc2ccc(-c3c[nH]c4nc(-c5cncs5)ccc34)cc2c1 [Compound 2055, 5-(3-(quinolin-6-yl)-1H-pyrrolo[2,3-b]pyridin-6-yl)thiazole] | 37 |  |
| CN(CC(F)F)C(=O)c1cnc2ccc(-c3c[nH]c4nc(C5CC5)ccc34)cn12 [Compound 2056, 6-(6-cyclopropyl-1H-pyrrolo[2,3-b]pyridin-3-yl)-N-(2,2-difluoroethyl)-N-methylimidazo[1,2-a]pyridine-3-carboxamide] | 5 |  |
